Data from ChEMBL document CHEMBL1159090 (Bioorg Med Chem Lett, 2010).

How the values were obtained:
[1] = biological target: 5-hydroxytryptamine receptor 2A (Homo sapiens, UniProt P28223); assay: Displacement of [3H]Ketanserin from human cloned 5HT2A receptor
Histamine H1 receptor = Histamine H1 receptor (Homo sapiens, UniProt P35367); assay: Displacement of [3H]Pyrilamine from human cloned histamine H1 receptor
Sequence of Histamine H1 receptor (P35367 whole entry): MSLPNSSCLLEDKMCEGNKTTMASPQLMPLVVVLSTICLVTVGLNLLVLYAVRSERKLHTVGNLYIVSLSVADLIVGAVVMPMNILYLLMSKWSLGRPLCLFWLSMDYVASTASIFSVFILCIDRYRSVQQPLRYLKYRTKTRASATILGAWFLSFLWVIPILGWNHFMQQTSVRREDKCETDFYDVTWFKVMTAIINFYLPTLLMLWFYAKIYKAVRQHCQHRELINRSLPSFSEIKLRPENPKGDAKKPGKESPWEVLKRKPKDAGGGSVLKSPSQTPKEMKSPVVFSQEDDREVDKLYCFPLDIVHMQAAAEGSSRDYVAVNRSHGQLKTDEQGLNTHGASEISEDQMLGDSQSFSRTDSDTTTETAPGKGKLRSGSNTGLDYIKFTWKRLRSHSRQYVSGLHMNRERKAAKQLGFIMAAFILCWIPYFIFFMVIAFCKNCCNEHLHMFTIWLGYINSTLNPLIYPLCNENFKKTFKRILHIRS

Sequence of 5-hydroxytryptamine receptor 2A (P28223 whole entry): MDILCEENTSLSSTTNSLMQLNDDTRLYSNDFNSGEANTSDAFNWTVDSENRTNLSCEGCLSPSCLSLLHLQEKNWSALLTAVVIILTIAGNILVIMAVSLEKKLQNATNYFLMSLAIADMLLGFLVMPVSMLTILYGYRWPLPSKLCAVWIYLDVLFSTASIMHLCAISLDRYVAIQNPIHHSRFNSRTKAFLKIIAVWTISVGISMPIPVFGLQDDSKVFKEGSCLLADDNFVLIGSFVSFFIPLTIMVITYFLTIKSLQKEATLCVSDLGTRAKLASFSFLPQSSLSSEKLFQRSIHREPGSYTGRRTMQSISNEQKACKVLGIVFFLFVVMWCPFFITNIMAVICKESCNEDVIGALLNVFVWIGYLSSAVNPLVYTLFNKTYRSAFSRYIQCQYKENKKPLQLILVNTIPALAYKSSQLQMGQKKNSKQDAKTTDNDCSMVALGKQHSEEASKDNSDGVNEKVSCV

Row | SMILES | Ki [1] | Ki (Histamine H1 receptor)
1 | COc1ccc2c3c(ccc2c1)Cc1ccccc1C3CN (stereo not drawn) | 21 nM | 2640 nM
2 | c1ccc(CCNCC2c3ccccc3Cc3ccccc32)cc1 | 400 nM | 242 nM
3 | c1ccc(CCCCNCC2c3ccccc3Cc3ccccc32)cc1 | 365 nM | 964 nM
4 | c1ccc(CCCNCC2c3ccccc3Cc3ccccc32)cc1 | 223 nM | 725 nM
